One may read the IC50 as the midpoint of a concentration-inhibition curve. Low readings indicate higher potency, high ones lower potency. A word on the AUC: it is the area under the concentration-time curve, a measure of exposure. Lower therefore signals low exposure. A word on the inhibition: it is the relative decrease from the control value, in per cent. Read a low inhibition as little suppression. Broadly, the clearance is the volume of plasma or blood freed of the substance per unit of time. Low readings indicate inefficient removal, high ones efficient removal. As usually defined, the bioavailability is dose-corrected exposure relative to a reference, in per cent. What is called Cmax is the highest concentration seen after dosing. One may read the MRT last as the average time that molecules of a dose stay in the body. One may read the AUC(0-t) as the area under the concentration-time curve up to a stated or last time point. The half-life is the time needed for the level to fall by half in the phase considered. Broadly, the CL/F is clearance divided by bioavailability, as obtained after extravascular dosing.

Experimental findings from ChEMBL document CHEMBL4340527, “Discovery of potent anti-inflammatory 4-(4,5,6,7-tetrahydrofuro[3,2-c]pyridin-2-yl) pyrimidin-2-amines for use as Janus kinase inhibitors” (Bioorg Med Chem, 2019) are described below.

Some results are limits rather than exact numbers.

In data set [1] the target is T1, Tyrosine-protein kinase JAK3 (Homo sapiens, UniProt P52333).
T1 sequence (P52333 whole entry): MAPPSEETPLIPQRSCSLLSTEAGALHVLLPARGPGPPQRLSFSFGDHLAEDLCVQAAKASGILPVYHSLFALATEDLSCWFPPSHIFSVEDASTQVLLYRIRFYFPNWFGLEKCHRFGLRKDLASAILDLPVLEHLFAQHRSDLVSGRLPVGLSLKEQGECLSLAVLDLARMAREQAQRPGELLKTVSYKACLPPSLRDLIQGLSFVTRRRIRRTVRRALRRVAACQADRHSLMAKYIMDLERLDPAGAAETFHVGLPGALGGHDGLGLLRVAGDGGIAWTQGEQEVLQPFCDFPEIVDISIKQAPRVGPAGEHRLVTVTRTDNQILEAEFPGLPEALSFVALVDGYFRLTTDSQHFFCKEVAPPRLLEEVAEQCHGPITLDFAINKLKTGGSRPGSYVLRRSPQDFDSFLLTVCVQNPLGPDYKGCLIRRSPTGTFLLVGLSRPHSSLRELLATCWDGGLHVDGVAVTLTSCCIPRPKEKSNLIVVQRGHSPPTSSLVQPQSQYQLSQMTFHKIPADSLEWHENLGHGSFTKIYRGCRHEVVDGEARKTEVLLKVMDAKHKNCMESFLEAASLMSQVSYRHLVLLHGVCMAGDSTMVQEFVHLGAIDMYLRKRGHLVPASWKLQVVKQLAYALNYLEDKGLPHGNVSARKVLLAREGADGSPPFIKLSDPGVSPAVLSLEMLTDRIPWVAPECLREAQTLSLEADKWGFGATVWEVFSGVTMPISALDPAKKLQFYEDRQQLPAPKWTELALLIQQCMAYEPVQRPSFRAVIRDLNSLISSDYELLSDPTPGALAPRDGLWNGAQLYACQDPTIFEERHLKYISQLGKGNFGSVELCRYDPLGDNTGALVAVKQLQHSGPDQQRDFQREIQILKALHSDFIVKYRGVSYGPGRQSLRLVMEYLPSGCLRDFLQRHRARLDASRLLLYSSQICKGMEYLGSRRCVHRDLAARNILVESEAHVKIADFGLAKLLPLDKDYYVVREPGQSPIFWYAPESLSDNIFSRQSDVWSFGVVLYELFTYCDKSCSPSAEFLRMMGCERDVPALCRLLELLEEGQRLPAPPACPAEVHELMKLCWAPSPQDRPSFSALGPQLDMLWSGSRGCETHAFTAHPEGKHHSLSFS
Description: Inhibition of JAK3 (unknown origin) using TK-substrate-biotin as substrate preincubated for 5 mins followed by substrate addition and measured by 30 mins by HTRF assay

The target in data set [2] is Tyrosine-protein kinase JAK2 (Homo sapiens, UniProt O60674).
Description: Inhibition of JAK2 (unknown origin) using TK-substrate-biotin as substrate preincubated for 5 mins followed by substrate addition and measured by 30 mins by HTRF assay
Data set [3] in a line: Volume of distribution in Sprague-Dawley rat at 2.5 mg/kg, iv after 2 mins to 24 hrs by LC-MS/MS analysis. In kind it is ADME, organism-based. The conditions noted are these: in vivo, read-out: Vz.
A short description of data set [4]: in vivo. The settings on record: rat, po, 5 mg/kg.
For data set [5] the following is noted: rat, in vivo, po, 10 mg/kg.
Data set [6] has as its target T2, hERG (KCNH2) (Homo sapiens, UniProt Q12809). Kind of data set: Inhibition of human ERG at 3 uM relative to control.
A short description of data set [7]: Clearance in Sprague-Dawley rat at 2.5 mg/kg, iv after 2 mins to 24 hrs by LC-MS/MS analysis. In kind it is ADME, organism-based. The settings on record: in vivo.
The subject of data set [8] is Rattus norvegicus. In kind it is functional.
For data set [9], the system named is Rattus norvegicus. In kind it is functional. This is another data set of the same source.
The target in data set [10] is T2, hERG (KCNH2). Kind of data set: Inhibition of human ERG at 30 uM relative to control.
The nature of data set [11]: Oral bioavailability in Sprague-Dawley rat at 10 mg/kg after 2 mins to 24 hrs by LC-MS/MS analysis. It counts as ADME, organism-based. The conditions noted are these: in vivo.
A short description of data set [12]: Cmax in Sprague-Dawley rat at 2.5 mg/kg, iv after 2 mins to 24 hrs by LC-MS/MS analysis. It counts as ADME, organism-based. Also noted: dose 2.5 mg/kg, route intravenous. The conditions noted are these: in vivo.
Data set [13] has as its target Voltage-gated inwardly rectifying potassium channel KCNH2 (Homo sapiens, UniProt Q12809). Description: Inhibition of human ERG.
Data set [14] can be described thus: MRT (0 to t) in Sprague-Dawley rat at 2.5 mg/kg, iv after 2 mins to 24 hrs by LC-MS/MS analysis. It counts as ADME, organism-based. The settings on record: in vivo.
The nature of data set [15]: AUC (0 to t) in Sprague-Dawley rat at 2.5 mg/kg, iv after 2 mins to 24 hrs by LC-MS/MS analysis. It counts as ADME, organism-based. Also noted: time 0.033-24 hr, dose 2.5 mg/kg, route intravenous. The conditions noted are these: in vivo.
Data set [16] in a line: in vivo. The settings on record: Sprague-Dawley, rat, po, 10 mg/kg.
Data set [17] is described as follows: in vivo. The conditions noted are these: Sprague-Dawley, rat, po, 10 mg/kg. The source holds these as a separate data set.
Data set [18] has as its target Tyrosine-protein kinase JAK1 (Homo sapiens, UniProt P23458).
Description: Inhibition of JAK1 (unknown origin) using TK-substrate-biotin as substrate preincubated for 5 mins followed by substrate addition and measured by 30 mins by HTRF assay
Data set [19] can be described thus: Half life in Sprague-Dawley rat at 2.5 mg/kg, iv after 2 mins to 24 hrs by LC-MS/MS analysis. It counts as ADME, organism-based. The settings on record: in vivo.
The nature of data set [20]: in vivo. The settings on record: Sprague-Dawley, rat, po, 10 mg/kg. The source holds these as a separate data set.
Data set [21] is described as follows: in vivo. The settings on record: Sprague-Dawley, rat, po, 10 mg/kg. The source holds these as a separate data set.
Data set [22] addresses T2, hERG (KCNH2). Kind of data set: Inhibition of human ERG at 0.3 uM relative to control.
In data set [23] the target is Non-receptor tyrosine-protein kinase TYK2 (Homo sapiens, UniProt P29597).
Description: Inhibition of Tyk2 (unknown origin)
A short description of data set [24]: in vivo. The conditions noted are these: Sprague-Dawley, rat, po, 10 mg/kg. The source holds these as a separate data set.

T2 sequence (Q12809 whole entry): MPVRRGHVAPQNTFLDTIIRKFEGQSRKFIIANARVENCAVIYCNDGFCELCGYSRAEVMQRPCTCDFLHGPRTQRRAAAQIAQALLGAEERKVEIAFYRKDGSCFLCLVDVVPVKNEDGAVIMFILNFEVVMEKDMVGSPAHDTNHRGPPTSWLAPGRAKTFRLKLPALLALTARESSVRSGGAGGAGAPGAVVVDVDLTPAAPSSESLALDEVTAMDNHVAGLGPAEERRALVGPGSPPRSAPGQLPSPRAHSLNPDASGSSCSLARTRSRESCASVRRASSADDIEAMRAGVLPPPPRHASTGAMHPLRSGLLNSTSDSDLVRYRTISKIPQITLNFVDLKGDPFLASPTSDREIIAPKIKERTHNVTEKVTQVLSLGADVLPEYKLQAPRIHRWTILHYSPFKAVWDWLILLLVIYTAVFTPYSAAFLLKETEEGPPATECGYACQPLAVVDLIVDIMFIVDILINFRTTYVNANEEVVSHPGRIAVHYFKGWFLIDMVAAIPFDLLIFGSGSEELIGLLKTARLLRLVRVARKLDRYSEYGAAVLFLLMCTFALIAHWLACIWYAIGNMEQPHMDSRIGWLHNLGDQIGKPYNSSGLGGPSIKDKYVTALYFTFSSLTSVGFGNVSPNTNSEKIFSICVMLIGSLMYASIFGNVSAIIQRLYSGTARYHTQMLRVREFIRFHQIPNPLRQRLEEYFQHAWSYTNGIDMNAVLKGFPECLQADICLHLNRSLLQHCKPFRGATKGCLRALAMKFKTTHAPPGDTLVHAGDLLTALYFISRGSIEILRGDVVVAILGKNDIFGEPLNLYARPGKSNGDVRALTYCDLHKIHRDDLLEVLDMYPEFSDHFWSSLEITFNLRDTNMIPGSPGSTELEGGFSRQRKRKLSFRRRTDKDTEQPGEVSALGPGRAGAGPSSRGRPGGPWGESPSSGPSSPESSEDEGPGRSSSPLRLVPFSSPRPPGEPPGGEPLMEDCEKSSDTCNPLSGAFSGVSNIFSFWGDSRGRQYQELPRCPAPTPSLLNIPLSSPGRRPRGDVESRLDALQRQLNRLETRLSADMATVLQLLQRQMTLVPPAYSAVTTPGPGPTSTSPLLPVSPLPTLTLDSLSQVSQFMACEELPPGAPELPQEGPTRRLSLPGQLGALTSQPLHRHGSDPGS
Sequence of Tyrosine-protein kinase JAK2 (O60674 whole entry): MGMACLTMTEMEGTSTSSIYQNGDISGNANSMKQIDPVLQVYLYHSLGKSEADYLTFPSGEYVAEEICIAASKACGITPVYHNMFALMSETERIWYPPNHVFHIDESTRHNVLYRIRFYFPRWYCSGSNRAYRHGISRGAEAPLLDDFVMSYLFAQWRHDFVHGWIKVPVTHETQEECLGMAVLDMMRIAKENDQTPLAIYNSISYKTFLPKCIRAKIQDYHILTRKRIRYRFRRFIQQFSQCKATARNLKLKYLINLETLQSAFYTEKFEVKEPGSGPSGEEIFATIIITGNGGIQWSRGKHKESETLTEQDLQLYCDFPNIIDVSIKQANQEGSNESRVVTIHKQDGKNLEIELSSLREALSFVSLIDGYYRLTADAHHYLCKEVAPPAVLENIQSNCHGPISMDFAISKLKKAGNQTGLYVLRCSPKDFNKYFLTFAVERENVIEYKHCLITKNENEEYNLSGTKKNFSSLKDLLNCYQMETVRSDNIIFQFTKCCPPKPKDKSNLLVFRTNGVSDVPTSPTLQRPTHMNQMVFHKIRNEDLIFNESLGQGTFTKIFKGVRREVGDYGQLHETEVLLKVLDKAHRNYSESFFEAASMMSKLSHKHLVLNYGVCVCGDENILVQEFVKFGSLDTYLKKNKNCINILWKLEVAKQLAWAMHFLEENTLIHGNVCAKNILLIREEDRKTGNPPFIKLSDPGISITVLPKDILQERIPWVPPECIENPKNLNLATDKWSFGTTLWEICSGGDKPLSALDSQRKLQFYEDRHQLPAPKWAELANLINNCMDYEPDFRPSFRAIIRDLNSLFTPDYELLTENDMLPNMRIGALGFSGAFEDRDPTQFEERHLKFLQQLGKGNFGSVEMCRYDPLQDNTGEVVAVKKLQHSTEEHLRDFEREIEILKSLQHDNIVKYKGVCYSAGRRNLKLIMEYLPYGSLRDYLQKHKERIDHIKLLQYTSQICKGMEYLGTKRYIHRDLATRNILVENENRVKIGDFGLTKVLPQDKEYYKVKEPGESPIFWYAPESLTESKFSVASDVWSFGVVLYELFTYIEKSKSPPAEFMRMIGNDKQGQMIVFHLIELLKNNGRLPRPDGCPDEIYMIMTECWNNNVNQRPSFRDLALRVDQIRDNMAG
Sequence of Non-receptor tyrosine-protein kinase TYK2 (P29597 whole entry): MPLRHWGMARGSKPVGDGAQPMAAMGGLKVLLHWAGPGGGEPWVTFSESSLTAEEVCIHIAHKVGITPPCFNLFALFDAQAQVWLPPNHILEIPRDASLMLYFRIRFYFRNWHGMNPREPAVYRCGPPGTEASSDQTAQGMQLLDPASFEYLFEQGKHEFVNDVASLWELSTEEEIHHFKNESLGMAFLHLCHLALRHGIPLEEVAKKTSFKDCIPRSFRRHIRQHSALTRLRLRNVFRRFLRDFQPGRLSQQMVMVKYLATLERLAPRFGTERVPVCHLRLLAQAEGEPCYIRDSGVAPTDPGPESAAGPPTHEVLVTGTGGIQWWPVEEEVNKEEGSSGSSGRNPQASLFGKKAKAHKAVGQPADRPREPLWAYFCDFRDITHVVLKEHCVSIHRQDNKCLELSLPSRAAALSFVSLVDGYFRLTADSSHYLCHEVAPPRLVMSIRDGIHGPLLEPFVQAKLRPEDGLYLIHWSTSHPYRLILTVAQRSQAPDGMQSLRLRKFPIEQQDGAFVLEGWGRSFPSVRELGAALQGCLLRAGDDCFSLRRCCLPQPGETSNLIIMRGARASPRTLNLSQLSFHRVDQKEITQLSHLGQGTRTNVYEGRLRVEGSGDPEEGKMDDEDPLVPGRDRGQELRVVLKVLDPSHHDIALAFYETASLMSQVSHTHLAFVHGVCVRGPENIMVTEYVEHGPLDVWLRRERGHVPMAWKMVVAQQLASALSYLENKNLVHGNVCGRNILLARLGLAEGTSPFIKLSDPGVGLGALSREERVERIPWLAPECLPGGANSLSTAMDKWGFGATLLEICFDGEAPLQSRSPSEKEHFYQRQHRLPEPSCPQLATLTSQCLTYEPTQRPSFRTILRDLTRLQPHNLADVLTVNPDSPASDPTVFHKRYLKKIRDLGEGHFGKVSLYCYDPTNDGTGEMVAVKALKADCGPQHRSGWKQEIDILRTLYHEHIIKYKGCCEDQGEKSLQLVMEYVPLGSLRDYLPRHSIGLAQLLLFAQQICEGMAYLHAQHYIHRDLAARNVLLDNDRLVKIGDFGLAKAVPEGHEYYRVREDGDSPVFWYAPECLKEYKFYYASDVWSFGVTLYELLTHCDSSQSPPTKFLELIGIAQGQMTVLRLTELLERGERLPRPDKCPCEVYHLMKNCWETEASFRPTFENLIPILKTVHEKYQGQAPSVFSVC
Sequence of Voltage-gated inwardly rectifying potassium channel KCNH2 (Q12809 whole entry): as the sequence (Q12809 whole entry) above

On to `COc1cc(Nc2ncc(C)c(-c3cc4c(o3)CCN(C(=O)CC#N)C4)n2)cc(OC)c1OC`, for which the half-maximal inhibitory concentration (IC50) is 12 nM in [1] and 1.6 nM in [2].

Turning to `Cc1cnc(Nc2cc(F)c(N3CCOCC3)c(F)c2)nc1-c1cc2c(o1)CCN(C(=O)CC#N)C2`, the half-maximal inhibitory concentration (IC50) in [1] was found to be 88.1 nM; in data set [2] it was 4.2 nM.

On to `Cc1cnc(Nc2cccc(N3CCN(C)CC3)c2)nc1-c1cc2c(o1)CCN(S(C)(=O)=O)C2`, for which the figures for the IC50 in data set [1] and in data set [2] were 751 nM and 112 nM, respectively.

Consider `Cc1cnc(Nc2ccccc2)nc1-c1cc2c(o1)CCN(S(C)(=O)=O)C2`, for which the concentration for half-maximal inhibition (IC50) in data set [1] was determined as 153 nM; in data set [2], 2.7 nM.

As for `Cc1cnc(Nc2cc(F)c(N3CCOCC3)c(F)c2)nc1-c1cc2c(o1)CCN(S(C)(=O)=O)C2`, the IC50 in data set [1] came out at 195 nM; in data set [2] it was 3.7 nM.

In the case of `Cc1cnc(Nc2ccc(N3CCOCC3)cc2)nc1-c1cc2c(o1)CCN(C(=O)c1cccc(C#N)c1)C2`, the half-inhibitory concentration (IC50) in data set [1] came out at 552 nM; in [2], 35.4 nM.

For the molecule `CCC(=O)N1CCc2oc(-c3nc(Nc4ccc(N5CCOCC5)cc4)ncc3C)cc2C1`, the half-inhibitory concentration (IC50) stood at 112 nM in [1] and 5.8 nM in data set [2].

`Cc1cnc(Nc2ccc(-n3ccnc3)cc2)nc1-c1cc2c(o1)CCN(S(C)(=O)=O)C2`: the IC50 is 91.3 nM in data set [1] and 10.8 nM in data set [2].

Consider `Cc1cnc(Nc2ccc(F)cc2)nc1-c1cc2c(o1)CCN(C(=O)CC#N)C2`, for which half-maximal inhibition in data set [1] (IC50) required 95.7 nM.

Regarding `Cc1cnc(Nc2ccc(OCCN3CCCC3)cc2)nc1-c1cc2c(o1)CCN(S(C)(=O)=O)C2`, the IC50 in data set [1] worked out at 56.7 nM; in [2] it was 4.1 nM.

For the molecule `Cc1cnc(Nc2ccc(N3CCN(C)CC3)cc2)nc1-c1cc2c(o1)CCN(C(=O)CC#N)C2`, the figures for the IC50 in data set [1] and in data set [2] were 33.7 nM and 1.6 nM, respectively.

As to `Cc1cnc(Nc2ccc(N3CCOCC3)cc2)nc1-c1cc2c(o1)CCN(C(=O)C(C)C)C2`, the concentration for half-maximal inhibition (IC50) in data set [1] came to 32.4 nM; in [2] it was 6.4 nM.

Turning to `Cc1cnc(Nc2ccc(N3CCOCC3)cc2)nc1-c1cc2c(o1)CCN(C(=O)c1ccc(C#N)cc1)C2`, the IC50 worked out at 431 nM in data set [1] and 28.8 nM in data set [2].

On to `Cc1cnc(Nc2ccc([N+](=O)[O-])cc2)nc1-c1cc2c(o1)CCN(C(=O)CC#N)C2`, for which the IC50 was found to be 275 nM in data set [1] and 14.2 nM in data set [2].

In the case of `Cc1cnc(Nc2ccc(OCCN3CCCC3)cc2)nc1-c1cc2c(o1)CCN(C(=O)CC#N)C2`, the results for the concentration for half-maximal inhibition (IC50) in [1] and in data set [2] were 52 nM and 9.6 nM, respectively.

Turning to `Cc1cnc(Nc2ccc(F)cc2)nc1-c1cc2c(o1)CCN(S(C)(=O)=O)C2`, the IC50 in [1] turned out to be 5080 nM; in [2] it was 12.1 nM.

For the molecule `Cc1cnc(Nc2ccccc2)nc1-c1cc2c(o1)CCN(C(=O)CC#N)C2`, the IC50 is 94.7 nM in data set [1] and 2.9 nM in data set [2].

With `Cc1cnc(Nc2ccc(N3CCOCC3)cc2)nc1-c1cc2c(o1)CCN(C(=O)CC#N)C2`, the Vd in [3] came to 2 L/kg. In “in vivo [4]”, this molecule showed an exposure (AUC) at 240 h of 1490 ng·h/mL. The molecule further came in with a Vz in data set [5] of 17.82 L/kg. Besides, the inhibition at 3 µM against hERG (KCNH2) [6] is 11.2%. Further, the clearance in data set [7] is 42 mL/min/kg. Moreover, the Activity in the data set with Rattus norvegicus [8] is recorded as 14.1%; in the data set on Rattus norvegicus [9], 113.2%. The IC50 in data set [1] is 7.6 to 13.5 nM; in data set [13] it was over 30000 nM; in data set [18], 5.1 nM; in data set [2], 0.5 to 0.7 nM; in data set [23], 3 nM. The molecule further yielded an inhibition at 30 µM at hERG (KCNH2) [10] of 16.4%. The bioavailability in [11] worked out at 54.8%. Besides, the Cmax turned out to be 2340 ng/mL in data set [12] and 540 ng/mL in the data set “in vivo [21]”. In addition, the MRT last in data set [14] came to 0.5 h; in “in vivo [17]”, 3.49 h. The AUC(0-t) was 1000 ng·h/mL in [15] and 2190 ng·h/mL in the data set “in vivo [16]”. Moreover, the half-life was 0.55 h in [19] and 2.91 h in “in vivo [24]”. The molecule also gave a CL/F in “in vivo [20]” of 71.8 mL/min/kg. For the same molecule, the inhibition at 0.3 µM against hERG (KCNH2) [22] was 1.9%.
